Bridge positions count the residues as written; N and C are the ends. Peptide text beside a SMILES is read from it.
Columns and labels:
Nav1.5/β1 = experiment: Two-electrode voltage-clamp on Xenopus laevis oocytes expressing Nav1.5/β1; format: cell-based; conditions: 1 µM; voltage of maximum sodium influx, holding −90 mV; oocytes TEVC; n ≥ 3
Excerpt: (§1) Using the two-electrode voltage-clamp technique on Xenopus laevis oocytes, the effect of PhlTx1 was also compared on eight different cloned vertebrate Nav channels co-expressed with the β1 subunit (Nav1.1-1.8/β1) and on the neuronal insect Nav channel, para, co-expressed with the tipE subunit (Figure 3 and Figure 4). […] Normalized current-voltage relationships (I-V curve) of Nav1.2/β1 and Nav1.3/β1 channels seemed to be shifted towards more negative potentials when PhlTx1 was applied, but shifts were not statistically significant […] (Figure 4). The activation phase of the other studied Nav channel subtypes was not affected. No obvious alteration in channel availability was observed, except a 5-mV negative shift for Nav1.3/β1, although that was also non-significant (p > 0.05).
(§2) Figure 4 1 µM of PhlTx1 was tested on Nav1.1/β1, Nav1.2/β1, Nav1.3/β1, Nav1.4/β1, Nav1.5/β1, Nav1.6/β1, Nav1.8/β1 and para/tipE (n ≥ 3). Left column: current traces were evoked by a 50-ms depolarization to the voltage of maximum sodium influx, depending on the Nav studied, from a holding potential of −90 mV. At 1 µM PhlTx1, all studied Nav channels, except Nav1.4/β1, were blocked for about 10% (no toxin: *). The current of Nav1.4/β1 was reduced for about 35 ± 5%. Middle column: normalized I-V curves reveal no significant shift of the activation voltage (p > 0.05). […]

Nav1.1/β1 = experiment: Two-electrode voltage-clamp on Xenopus laevis oocytes expressing Nav1.1/β1; format: cell-based; conditions: 1 µM; voltage of maximum sodium influx, holding −90 mV; oocytes TEVC; n ≥ 3
Excerpt: as §1, §2

CC(C)C[C@@H]1NC(=O)[C@@H](NC(=O)[C@H](C)N)CSSC[C@@H]2NC(=O)[C@@H]3CSSC[C@@H](C(=O)N[C@@H](CCCNC(=N)N)C(=O)N[C@@H](Cc4ccc(O)cc4)C(=O)N[C@@H](CCCCN)C(=O)N[C@@H](CC(C)C)C(=O)N[C@@H](Cc4ccccc4)C(=O)O)NC(=O)[C@H](Cc4c[nH]c5ccccc45)NC(=O)[C@@H]4CCCN4C(=O)[C@H](Cc4ccc(O)cc4)NC(=O)[C@H](CCCCN)NC(=O)[C@H](Cc4c[nH]c5ccccc45)NC(=O)[C@H](CCC(=O)O)NC(=O)[C@H](CSSC[C@H](NC(=O)[C@H](CO)NC(=O)[C@H](CC(=O)O)NC(=O)[C@H](Cc4c[nH]c5ccccc45)NC(=O)[C@H](CCC(N)=O)NC(=O)CNC1=O)C(=O)N[C@@H](CC(=O)O)C(=O)N1CCC[C@H]1C(=O)N[C@@H](CCCCN)C(=O)N[C@@H](C)C(=O)N[C@@H](CO)C(=O)N[C@@H](CCCCN)C(=O)N3)NC(=O)[C@H](C)NC(=O)[C@H](Cc1ccc(O)cc1)NC(=O)[C@H](CC(N)=O)NC(=O)[C@@H]1CCCN1C2=O [PhlTx1, Phlotoxin-1] (H-ACLGQWDSCDPKASKCCPNYACEWKYPWCRYKLF-OH; disulfide 2-17, 9-22, 16-29; N-terminus and C-terminus assumed)
block of sodium current (Nav1.5/β1): about 10%
block of sodium current (Nav1.1/β1): about 10%

Reference: paper PMC6628435, “Chemical Synthesis, Proper Folding, Nav Channel Selectivity Profile and Analgesic Properties of the Spider Peptide Phlotoxin 1” (Toxins, 2019)
